Values after ≈ are worked out from the molar mass of the structure shown.
Columns and labels:
Trypanosoma congolense [1] = assay: Trypanocidal activity against Trypanosoma congolense IL3000 assessed as parasite growth inhibition at 50 ug/ml incubated for 3 days by Celltiter-Glo luminescence assay; parameters: scale not given: the % may be the effect or the level left; conditions: dose 50 µg/ml; time 3 day
[2] = system: Trypanosoma brucei brucei; assay: Trypanocidal activity against Trypanosoma brucei brucei GUTat3.1 assessed as parasite growth inhibition at 50 ug/ml incubated for 3 days by Celltiter-Glo luminescence assay; type: functional; parameters: scale not given: the % may be the effect or the level left; conditions: dose 50 µg/ml; time 3 day
[3] = system: Trypanosoma brucei rhodesiense; assay: Trypanocidal activity against Trypanosoma brucei rhodesiense IL1501 assessed as parasite growth inhibition at 50 ug/ml incubated for 3 days by Celltiter-Glo luminescence assay; type: functional; parameters: scale not given: the % may be the effect or the level left; conditions: dose 50 µg/ml; time 3 day
Trypanosoma evansi [4] = assay: Trypanocidal activity against Trypanosoma evansi assessed as parasite growth inhibition at 50 ug/ml incubated for 3 days by Celltiter-Glo luminescence assay; type: functional; parameters: scale not given: the % may be the effect or the level left; conditions: dose 50 µg/ml; time 3 day
[5] = system: Trypanosoma brucei gambiense; assay: Trypanocidal activity against Trypanosoma brucei gambiense IL1922 assessed as parasite growth inhibition at 50 ug/ml incubated for 3 days by Celltiter-Glo luminescence assay; type: functional; parameters: scale not given: the % may be the effect or the level left; conditions: dose 50 µg/ml; time 3 day
[6] = system: Trypanosoma brucei rhodesiense; assay: Trypanocidal activity against Trypanosoma brucei rhodesiense assessed as parasite growth inhibition at 50 ug/ml incubated for 3 days by Celltiter-Glo luminescence assay; type: functional; parameters: scale not given: the % may be the effect or the level left; conditions: dose 50 µg/ml; time 3 day
Trypanosoma evansi [7] = assay: Trypanocidal activity against Trypanosoma evansi assessed as parasite growth inhibition incubated for 3 days by Celltiter-Glo luminescence assay; type: functional, organism-based; conditions: 72 h
Trypanosoma congolense [8] = assay: Trypanocidal activity against Trypanosoma congolense IL3000 assessed as parasite growth inhibition incubated for 3 days by Celltiter-Glo luminescence assay; conditions: IL3000, 72 h
[9] = system: Trypanosoma brucei rhodesiense; assay: Trypanocidal activity against Trypanosoma brucei rhodesiense assessed as parasite growth inhibition incubated for 3 days by Celltiter-Glo luminescence assay; type: functional, organism-based; conditions: 72 h
[10] = system: Trypanosoma brucei rhodesiense; assay: Trypanocidal activity against Trypanosoma brucei rhodesiense IL1501 assessed as parasite growth inhibition incubated for 3 days by Celltiter-Glo luminescence assay; type: functional, organism-based; conditions: IL1501, 72 h
[11] = system: Trypanosoma brucei brucei; assay: Trypanocidal activity against Trypanosoma brucei brucei GUTat3.1 assessed as parasite growth inhibition incubated for 3 days by Celltiter-Glo luminescence assay; type: functional, organism-based; conditions: GUTat3.1, 72 h
[12] = system: Trypanosoma brucei gambiense; assay: Trypanocidal activity against Trypanosoma brucei gambiense IL1922 assessed as parasite growth inhibition incubated for 3 days by Celltiter-Glo luminescence assay; type: functional, organism-based; conditions: IL1922, 72 h

SMILES	Activity (Trypanosoma congolense [1]) [%]	Activity [2] [%]	Activity [3] [%]	Activity (Trypanosoma evansi [4]) [%]	Activity [5] [%]	Activity [6] [%]	IC50 (Trypanosoma evansi [7]) [µg/mL]	IC50 (Trypanosoma congolense [8]) [µg/mL]	IC50 [9] [µg/mL]	IC50 [10] [µg/mL]	IC50 [11] [µg/mL]	IC50 [12] [µg/mL]
COc1ccc(O[C@@H]2O[C@H](CO)[C@@H](O)[C@H](O)[C@H]2O)cc1OC	0	0	0	0	0	8.9						
Oc1ccc([C@H]2Oc3cc(O)ccc3[C@H](c3c(O)cc(O)c4c3O[C@H](c3cc(O)c(O)c(O)c3)[C@H](O)C4)[C@@H]2O)cc1	99.67	0	13.65	99.69	26.1	99.9	23.2 (≈ 41.2 µM)	15.3 (≈ 27.3 µM)	3.91 (≈ 6.95 µM)			
Cc1cc(O)c(C(=O)c2c(O)cccc2O[C@@H]2O[C@H](CO)[C@@H](O)[C@H](O)[C@H]2O)c(C(=O)O)c1	20.76	15.74	2.22	0	5.44	34.99						
Oc1ccc2c(c1)O[C@H](c1cc(O)c(O)c(O)c1)[C@@H](O)[C@H]2c1c(O)cc(O)c2c1O[C@H](c1ccc(O)c(O)c1)[C@H](O)C2	100.13	44.09	60.48	100.24	83.48	100.09	5.51 (≈ 9.52 µM)	7.15 (≈ 12.4 µM)	5.42 (≈ 9.37 µM)			
COc1cc(O[C@@H]2O[C@H](CO)[C@@H](O)[C@H](O)[C@H]2O[C@@H]2O[C@@H](C)[C@H](OC(C)=O)[C@@H](OC(C)=O)[C@H]2OC(C)=O)cc(OC)c1OC	91.43	44.45	27.17	0	38.79	89.65		40.9 (≈ 66.1 µM)	33.3 (≈ 53.8 µM)			
Oc1ccc([C@H]2Oc3cc(O)ccc3[C@@H](c3c(O)cc(O)c4c3O[C@H](c3cc(O)c(O)c(O)c3)[C@H](O)C4)[C@@H]2O)cc1	69.89	48.67	57.75	69.94	57.94	90.97	3.32 (≈ 5.9 µM)	5.32 (≈ 9.46 µM)	4.13 (≈ 7.34 µM)			
COc1cc(O[C@@H]2O[C@H](CO)[C@@H](O)[C@H](O)[C@H]2O[C@@H]2O[C@@H](C)[C@H](O)[C@@H](O)[C@H]2O)cc(OC)c1OC	0	0.72	2.26	0	0.1	5.42						
Oc1ccc([C@H]2Oc3cc(O)ccc3[C@@H](c3c(O)cc(O)c4c3O[C@H](c3ccc(O)c(O)c3)[C@@H](O)C4)[C@@H]2O)cc1	20.82	20.95	6.96	0	6.42	88.52						
Oc1ccc([C@H]2Oc3cc(O)ccc3[C@H](c3c(O)cc(O)c4c3O[C@H](c3ccc(O)c(O)c3)[C@H](O)C4)[C@@H]2O)cc1	35.26	13.03	1.57	0	10.01	59.53						
COc1ccc(O[C@@H]2O[C@H](CO)[C@@H](O)[C@H](O)[C@H]2O[C@@H]2OC[C@](O)(CO)[C@H]2O)cc1OC	0	0	0	0.6	0	2.69						
COc1cc(C(=O)O)cc(OC)c1O[C@@H]1O[C@H](CO)[C@@H](O)[C@H](O)[C@H]1O	0	9.64	20.63	0	14.44	53.1						
Oc1ccc2c(c1)O[C@H](c1ccc(O)c(O)c1)[C@@H](O)[C@@H]2c1c(O)cc(O)c2c1O[C@H](c1cc(O)c(O)c(O)c1)[C@H](O)C2	72.01	10.18	24.11	57.8	14.68	99.93	12.2 (≈ 21.2 µM)	13.1 (≈ 22.6 µM)	10.9 (≈ 18.9 µM)			
Cc1cc(O[C@@H]2O[C@H](CO)[C@@H](O)[C@H](O)[C@H]2O)c(C(=O)c2c(O)cccc2O)c(C(=O)O)c1		18.9	3.46	29.06	7.09	85.05						
Oc1ccc2c(c1)O[C@H](c1ccc(O)c(O)c1)[C@@H](O)[C@@H]2c1c(O)cc(O)c2c1O[C@H](c1ccc(O)c(O)c1)[C@@H](O)C2	36.23	20.31	2.52	32.9	4.59	99.6						
Oc1ccc([C@H]2Oc3c(c(O)cc(O)c3[C@@H]3c4ccc(O)cc4O[C@H](c4ccc(O)c(O)c4)[C@H]3O)C[C@H]2O)cc1	33.1	16.43	9.66	0	10.09	90.49						
Oc1ccc([C@H]2Oc3cc(O)ccc3[C@@H](c3c(O)cc(O)c4c3O[C@H](c3cc(O)c(O)c(O)c3)[C@@H](O)C4)[C@@H]2O)cc1	99.74	35.39	20.49	99.77	26.67	99.92	14.9 (≈ 26.5 µM)	7.53 (≈ 13.4 µM)	4.02 (≈ 7.15 µM)			
Oc1ccc2c(c1)O[C@H](c1ccc(O)c(O)c1)[C@@H](O)[C@H]2c1c(O)cc(O)c2c1O[C@H](c1ccc(O)c(O)c1)[C@H](O)C2	37.33	12.85	19.57	4.88	9.9	82.26						
COc1cc(O[C@@H]2O[C@H](CO)[C@@H](O)[C@H](O)[C@H]2O[C@@H]2OC[C@](O)(CO)[C@H]2O)cc(OC)c1OC	0	0	0.73	0	0	60.74						
Oc1ccc2c(c1)O[C@H](c1ccc(O)c(O)c1)[C@@H](O)[C@H]2c1c(O)cc(O)c2c1O[C@H](c1cc(O)c(O)c(O)c1)[C@H](O)C2	99.96	26.31	42.7	100.12	73.09	100.02	6.52 (≈ 11.3 µM)	9.26 (≈ 16 µM)	6.79 (≈ 11.7 µM)			
Oc1cc(O)c2c(c1)O[C@H](c1ccc(O)c(O)c1)[C@H](O)C2 [(-)-EPICATECHIN]	13.33	29.77	8.81	54.44	11.49	74.01						
COc1cc(O)cc(OC)c1OC [ANTIAROL]	1.68	32.18	20.12	0	43.51	94.68			24.9 (≈ 135 µM)			
Oc1cc(O)c2c(c1)O[C@H](c1ccc(O)c(O)c1)[C@@H](O)C2 [CIANIDANOL]	22.03	22.82	2.35	66.43	9.71	100.03	14.9 (≈ 51.3 µM)		47.6 (≈ 164 µM)			
N=C(N)c1ccc(/N=N/Nc2ccc(C(=N)N)cc2)cc1 [DIMINAZENE]							0.0033 (≈ 0.0117 µM)	0.065 (≈ 0.231 µM)	0.081 (≈ 0.288 µM)	0.013 (≈ 0.0462 µM)	0.02 (≈ 0.0711 µM)	0.0066 (≈ 0.0235 µM)
NCCC[C@](N)(C(=O)O)C(F)F [EFLORNITHINE, (S)-]							10.4 (≈ 57.2 µM)	2.94 (≈ 16.1 µM)	6.5 (≈ 35.7 µM)	8.38 (≈ 46 µM)	7.03 (≈ 38.6 µM)	6.68 (≈ 36.7 µM)
Oc1cc(O)c2c(c1)O[C@H](c1cc(O)c(O)c(O)c1)[C@H](O)C2 [EPIGALLOCATECHIN]	99.94	62.43	66.56	99.99	85.1	100.06	1.58 (≈ 5.16 µM)	2.38 (≈ 7.77 µM)	1.62 (≈ 5.29 µM)			
CC1CS(=O)(=O)CCN1/N=C/c1ccc([N+](=O)[O-])o1 (centres undefined) [NIFURTIMOX]								0.3 (≈ 1.04 µM)	0.42 (≈ 1.46 µM)			
N=C(N)c1ccc(OCCCCCOc2ccc(C(=N)N)cc2)cc1 [PENTAMIDINE]							0.00033 (≈ 0.000969 µM)	0.11 (≈ 0.323 µM)	0.0017 (≈ 0.00499 µM)	0.0099 (≈ 0.0291 µM)	0.014 (≈ 0.0411 µM)	0.0049 (≈ 0.0144 µM)
Cc1ccc(C(=O)Nc2ccc(S(=O)(=O)O)c3cc(S(=O)(=O)O)cc(S(=O)(=O)O)c23)cc1NC(=O)c1cccc(NC(=O)Nc2cccc(C(=O)Nc3cc(C(=O)Nc4ccc(S(=O)(=O)O)c5cc(S(=O)(=O)O)cc(S(=O)(=O)O)c45)ccc3C)c2)c1 [SURAMIN]							0.54 (≈ 0.416 µM)	10.2 (≈ 7.9 µM)	0.094 (≈ 0.0725 µM)	0.11 (≈ 0.0848 µM)	0.094 (≈ 0.0725 µM)	0.092 (≈ 0.0709 µM)
